Assay [1] concerns reprogrammed DPSCs. In words: FACS of reprogrammed DPSCs stained with BDL-E5 at 7 dpn and iPS colony count. The class given is cell-based, human. Particulars: DPSCs sorted at 7 dpn, seeded on MEF, two weeks. The protocol:
(§1) Reprogrammed ASCs and DPSCs, AiPS and DiPS on D7 or D14 dpn were stained with BDL-E5 for 1 hour and then harvested using TrypLE and resuspended in 1×PBS. The cells were then subjected to FACS in the MoFlo XDP Cell Sorter (Beckman Coulter) under sterile conditions.
Different DPSC cell lines were reprogrammed using the feeder-free episomal method, incubated with BDL-E5, and subjected to fluorescence activated cell sorting (FACS) at 7 dpn. […] FIG. 10A (i) and (ii) represents the unstained DPSCs.
The cells were allowed to grow for the next two weeks until colonies appeared.

For assay [2], the system named is human iPS cells (AiPS, DiPS colonies). Briefly: DOFLA screening (primary, secondary, tertiary) of fluorescent probes on iPS cells versus original somatic cells. It is filed as cell-based. The protocol:
The chemical properties of the BDL library are previously described (Jeong et al., 2015). BDL-E5 is based on 4,4-difluoro-4-bora-3a,4a-diaza-s-indacene (BODIPY), with calculated mass of 528.3 and absorption maximum/emission maximum of 578/599 nm. Primary, secondary and tertiary screening of fluorescent probes on AiPS, ASCs, DiPS and DPSCs were performed as described previously (Im, et al. (2010). Angew Chem Int Ed Engl 49, 7497-7500; Kang, et al. (2011). Nat Protoc 6, 1044-1052) and in the Results section. Unless described otherwise, BDL-E5 and CDy1 images were acquired by the Tetramethylrhodamine (TRITC) channel of ImageXpress Micro High-Content Imaging System, which had the Adaptive Background Correction function enabled.
A high-throughput system using in-house Diversity Orientated Fluorescence Library Approach (DOFLA) was employed to screen 46 fluorescent probes that the inventors predicted may specifically recognize pluripotent stem cells. To identify fluorescent probes that detected human pluripotent stem cells, ASCs, ASC-derived iPS (AiPS) cells, DPSCs, and DPSC-derived iPS (DiPS) cells were used. […] Cells were seeded onto 384-well plates (primary screen) or 96-well plates (secondary and tertiary screen) coated with mouse embryonic fibroblasts (MEF) or matrigel (MG) for DOFLA screening (FIG. 1A). After 48 h, cells were stained with library probes (500 nM) for 1 h. Fluorescence was imaged using the ImageXpress System under the following conditions: “No wash” (after 1 h probe incubation), “Wash 0 min” (after one wash with PBS), “Wash 60 min” (after wash and destain for 1 h) and “Wash 180 min” (after wash and destain for 3 h) (FIG. 1A).
Images were analyzed using the MetaXpress Image Acquisition and Analysis software. Following tertiary screening, two probes were shortlisted to develop further as pluripotent probes: BDL-E5 and CDy1. The chemical structure of BDL-E5 is depicted in FIG. 1B.
Secondary screening was performed to confirm that the probes selectively stained different iPS colonies. […] The BDL-E5^+ colonies were also positively stained for the pluripotency marker TRA-1-60.
Based on the primary and secondary screenings for live fluorescent probes that can specifically identify pluripotent cells, BDL-E5 and CDy1 were chosen as two probes to further analyze. Tertiary screening was performed using the two probes on AiPS colonies under the following probe staining conditions: No wash, Wash 0 min, Wash 60 min, and Wash 180 min.

The subject of assay [3] is reprogrammed SC-ASCs and VS-ASCs. Briefly: FACS of reprogrammed ASCs stained with BDL-E5 at 14 dpn and iPS colony count. It is filed as cell-based, human. Particulars: for iPS colonies from BDL-E5+ versus BDL-E5- sorted cells: seeded on MEF; for percentage of cells staining negatively / percentage of cells staining positively: FACS at 14 dpn.
Source text: WAT was isolated from subcutaneous (abdominal region) and visceral (omental region) depots from 2 human volunteers (S15-S16, undergoing bariatric surgery, with approval by the National Healthcare Group Domain Specific Review Board at National Healthcare Group, Singapore) as described previously (Ong, et al. (2014). Stem Cell Reports 2, 171-179; Takeda, et al. (2016). Diabetes 65, 1164-1178). […]. ASCs were isolated from WAT and cultured, as previously described (Sugii, et al. (2011). Nature Protoc 6, 346-358). Cells only up to passage 5 were used for experiments. MSC cell surface markers and multipotency of ASCs used herein were confirmed by flow cytometry and differentiation assays, respectively (Ong, et al. (2014). Stem Cell Reports 2, 171-179).
as §1
Next, the inventors investigated whether the probe was useful in assisting reprogramming selection of obese patient-derived ASCs from subcutaneous (SC) and visceral (VS) fat depots. […] FIG. 10A (iii) and (iv) represents the unstained ASCs. BDL-E5^+ and BDL-E5^− cells sorted using FACS were seeded onto MEF-coated plates.
To investigate the quality of the BDL-E5^+ generated iPS cells, the iPS colonies were passaged for several generations. As shown in FIG. 10B(i), ASC-derived BDL-E5^+ colonies remained well self-renewed and TRA-1-60 positive for subsequent passages.

The test system of assay [4] is reprogramming (RP) versus non-reprogramming (non-RP) DPSCs (DPSC1). Briefly: Signal-to-noise comparison of reprogramming versus non-reprogramming cells. It is filed as cell-based, human. The protocol: FIG. 14: (A) Graph representing signal-to-noise ratios (arbitrary fluorescence units) on comparing reprogramming (RP) versus non-reprogramming (non-RP) DPSCs (DPSC1) stained with either CDy1 or BDL-E5. The fluorescence intensity was measured using ImageJ software. 100 cells per field (10×), 10 fields per well, 3 wells per probe were measured. […] denotes significance between RP and non-RP cells. (B) Proliferation assay of DPSC1 incubated with BDL-E5 (500 nM) for 2 to 5 days; represented as number of viable cells per cm^2 (n=3). (C) Proliferation assay of reprogramming DPSC1, 48 h after transfection with Scr CREB1, CREB1 OE or siCREB1; represented as number of viable cells per cm^2 (n=3).

In assay [5] the test system is reprogramming DPSCs at 7 dpn. In words: Fluorescent subcellular organelle co-staining. It is filed as cell-based, human. Particulars: confocal; ER, Golgi, lysosome, mitochondria marker dyes. An excerpt:
Reprogrammed DPSCs at 7 dpn on MG were stained for cell organelle marker dyes (Molecular Probes) for endoplasmic reticulum (ER) (ER-Tracker™ Green (BODIPY® FL Glibenclamide)), Golgi complex (BODIPY® FL C5-Ceramide (N-(4,4-Difluoro-5,7-Dimethyl-4-Bora-3a,4a-Diaza-s-Indacene-3-Pentanoyl)Sphingosine)), lysosome (LysoTracker® Green DND-26), or mitochondria (MitoTracker® Green FM). Confocal images were taken to visualize the staining.
To determine the subcellular organelle localization of BDL-E5 in reprogramming cells, 7 dpn DPSCs on MG were stained for BDL-E5 and organelle marker dyes for endoplasmic reticulum (ER), Golgi complex, lysosome, or mitochondria.

For the molecule `COc1cc(F)c(/C=C/c2cc(C)c3n2[B-](F)(F)[N+]2=C(CCC(=O)NCCN(C)C)C=CC2=C3)cc1OC` [BDL-E5], the “iPS colonies from BDL-E5+ (top 10%) versus BDL-E5- (bottom 10%) sorted cells” value in assay [1] is reported as “gave rise to an increased number of iPSCs”. In assay [2] (500 nM probe, 1 h, after tertiary screening), the “intensity of fluorescence in human iPS cells compared with original somatic cells and MEFs” value is “significantly increased intensity of fluorescence”. The “staining of AiPS colonies compared with original somatic cells (ASCs)” value in assay [2] (primary screening, MEF- or MG-coated plates, 500 nM, 1 h, BDL-E5 No wash) was “increased BDL-E5 staining”. Besides, the “staining of DiPS colonies compared with original DPSCs” value in assay [2] (secondary screening, MEF- or MG-coated plates, 500 nM, 1 h, BDL-E5 No wash) is “significantly increased fluorescence intensity”. Further, the “wash condition under which staining (signal-to-background ratio) was greatest” value in assay [2] (tertiary screening, AiPS colonies on MEF-coated plates) is reported as “No wash”. Further, the “wash condition under which staining was greatest” value in assay [2] (tertiary screening, AiPS colonies on MG-coated plates) is listed as “No wash”. In addition, the “iPS colonies from BDL-E5+ versus BDL-E5- sorted cells” value in assay [3] (SC-ASCs sorted at 14 dpn) is given as “gave rise to more colonies than the BDL-E5^− population”; in assay [3] (VS-ASCs sorted at 14 dpn), “at least some BDL-E5^+ VS-ASCs gave rise to iPS colonies”. The figures for the “percentage of cells staining negatively” value in assay [3] (SC-ASCs) and in assay [3] (VS-ASCs) were approximately 11% and approximately 24%, respectively. The “percentage of cells staining positively” value is reported as approximately 33% in assay [3] (SC-ASCs) and approximately 19% in assay [3] (VS-ASCs). For the same molecule, the “signal toward reprogramming cells and background staining against non-reprogramming cells” value in assay [4] is recorded as “low non-specific staining against non-reprogramming cells”. In addition, the subcellular organelle localization result in assay [5] is reported as “co-localize significantly with Golgi complex staining”.

These data come from US20230339983A1, “FLUORESCENT COMPOUNDS SPECIFIC FOR PLURIPOTENT STEM CELLS AND REPROGRAMMING-READY CELLS AND METHODS OF USING THE SAME” (Agency for Science, Technology and Research, priority 2018, published 2023).
